According to EP0039037A1, “Pyrimidylthio-ureas, medicines containing them and their use” (Beiersdorf Aktiengesellschaft, priority 1980, dated 1981):

How the values were obtained:
hyperlipidämische Mäuse = experiment: Lipid-lowering effect in hyperlipidaemic mice (method analogous to Turner, Screening Methods in Pharmacology, and Garattini et al.); assay type: in vivo
Method: Die lipidsenkende Wirkung von N. (4,6-Dimethoxy-5-pyrimidyl)-thioharnstoff wurde an hyperliprdämischen Mausen analog einer Untersuchungsmethode, wie in "Screening Methods in Pharmacology", Robert A. Turner, 1965, Academic Press, New York and London, und Garattini et al, Arzneimittelforschung 9, 206 (1959), angegeben, untersucht. Die Verbindung wurde in einer Menge von 10 mg/kg peroral verabreicht. Es wurde eine Senkung des Cholesterinspiegels von 25 % und eine Senkung der Triglyceride von 27% erzielt.
(§1) Es wurde die lipid- und blutdrucksenkende Wirkung von N-(2,4-DimethoxY-5-pyrimidyl)-thioharnstoff untersucht. Als Yersuchsziere. wurden hyperlipidämische Mäuse und spontan hypertensive Ratten verwendet.
Bei den Mäusen wurde eine Verabreichungsdosis von 100 mg/ kg peroral verwendet, wobei eine Senkung des Cholesterinspiegels von 38 % und eine Senkung der Triglyceride von 49 % erreicht wurde.

[1] = test system: spontan hypertensive Ratten; experiment: Blood-pressure-lowering effect in spontaneously hypertensive rats; assay type: in vivo; details: 30 mg/kg peroral
Method: as §1
Bei den Ratten wurde eine Dosis von 30 mg/kg peroral verabreicht, wobei eine Blutdrucksenkung von 30 % erzielt wurde.
Es wurde die blutdrucksenkende Wirkung von N-(4,6-Dimethoxy-2-methyl-5-pyrimidyl)-thioharnstoff bei spontan hypertensiven Ratten untersucht. Den Ratten wurde die Verbindung in einer Dosis von 30 mg/kg peroral verabreicht. Damit wurde eine Blutdrucksenkung von 30 % erzielt.

| SMILES | Senkung der Triglyceride (hyperlipidämische Mäuse; 100 mg/kg peroral) | Senkung des Cholesterinspiegels (hyperlipidämische Mäuse; 100 mg/kg peroral) | Blutdrucksenkung [1] | Senkung der Triglyceride (hyperlipidämische Mäuse; 10 mg/kg peroral) | Senkung des Cholesterinspiegels (hyperlipidämische Mäuse; 10 mg/kg peroral) |
| --- | --- | --- | --- | --- | --- |
| COc1ncc(NC(N)=S)c(OC)n1 [N-(2,4-Dimethoxy-5-pyrimidyl)-thioharnstoff] | 49% | 38% | 30% | – | – |
| COc1nc(C)nc(OC)c1NC(N)=S [N-(4,6-Dimethoxy-2-methyl-5-pyrimidyl)-thioharnstoff] | – | – | 30% | – | – |
| COc1ncnc(OC)c1NC(N)=S [N-(4,6-Dimethoxy-5-pyrimidyl)-thioharnstoff] | – | – | – | 27% | 25% |
